Source: ChEMBL document CHEMBL4229400, “Covalent inhibitors of nicotinamide N-methyltransferase (NNMT) provide evidence for target engagement challenges in situ” (Bioorg Med Chem Lett, 2018)
The source made the active and inactive calls. No cut-off for these calls is given here.

Legend:
[1] = molecular target: T1, Aldehyde dehydrogenase 1A1 (Homo sapiens) (UniProt P00352); test: Binding affinity to ALDH1A1 cysteine residue in human 786-O cell soluble proteomic lysate at 5 uM incubated for 1 hr followed by cell lysis by IA-alkyne probe based isoTOP-ABPP analysis
T1 sequence (whole entry): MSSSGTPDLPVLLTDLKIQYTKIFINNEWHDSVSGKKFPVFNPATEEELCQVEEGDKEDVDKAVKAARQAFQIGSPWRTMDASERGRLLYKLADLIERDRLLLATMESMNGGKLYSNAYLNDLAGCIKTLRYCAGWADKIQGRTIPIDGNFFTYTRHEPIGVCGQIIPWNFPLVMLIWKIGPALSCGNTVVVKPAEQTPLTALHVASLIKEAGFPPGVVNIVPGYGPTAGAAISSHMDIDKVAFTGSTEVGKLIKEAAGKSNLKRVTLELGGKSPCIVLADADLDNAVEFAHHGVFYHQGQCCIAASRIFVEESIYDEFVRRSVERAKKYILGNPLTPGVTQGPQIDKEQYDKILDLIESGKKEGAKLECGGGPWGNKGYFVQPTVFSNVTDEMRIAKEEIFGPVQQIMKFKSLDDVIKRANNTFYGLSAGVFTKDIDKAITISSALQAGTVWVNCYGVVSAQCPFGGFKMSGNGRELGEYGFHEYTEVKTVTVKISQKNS

[2] = molecular target: T2, Heme oxygenase 2 (Homo sapiens) (UniProt P30519); test: Binding affinity to HMOX2 cysteine residue in human 786-O cell soluble proteomic lysate at 5 uM incubated for 1 hr followed by cell lysis by IA-alkyne probe based isoTOP-ABPP analysis
T2 sequence (whole entry): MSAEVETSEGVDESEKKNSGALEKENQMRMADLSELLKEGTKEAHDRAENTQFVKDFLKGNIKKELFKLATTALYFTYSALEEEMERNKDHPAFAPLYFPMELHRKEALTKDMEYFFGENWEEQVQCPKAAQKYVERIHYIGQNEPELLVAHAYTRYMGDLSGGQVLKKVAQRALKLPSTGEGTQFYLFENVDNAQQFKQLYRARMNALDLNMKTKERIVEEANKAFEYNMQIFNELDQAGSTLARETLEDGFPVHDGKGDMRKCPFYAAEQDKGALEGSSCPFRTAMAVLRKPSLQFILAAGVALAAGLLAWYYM

[3] = molecular target: T3, Nicotinamide N-methyltransferase (Homo sapiens, UniProt P40261); test: Inhibition of NNMT in human 786-O cell lysate using d4-nicotinamide as substrate preincubated for 1 hr followed by substrate and SAM addition measured after 15 to 30 mins by LC-MS analysis
T3 sequence (P40261 whole entry): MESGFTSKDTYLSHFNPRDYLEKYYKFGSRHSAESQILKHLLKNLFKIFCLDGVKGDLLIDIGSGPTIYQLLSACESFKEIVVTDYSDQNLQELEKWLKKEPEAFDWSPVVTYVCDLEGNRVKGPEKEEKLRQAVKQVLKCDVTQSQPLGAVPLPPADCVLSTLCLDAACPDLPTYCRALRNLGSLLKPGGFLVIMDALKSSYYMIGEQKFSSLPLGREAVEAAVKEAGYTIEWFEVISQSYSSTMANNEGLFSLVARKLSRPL

Zyxin (Homo sapiens) = molecular target: T4, Zyxin (Homo sapiens) (UniProt Q15942); test: Binding affinity to ZYX cysteine residue in human 786-O cell soluble proteomic lysate at 5 uM incubated for 1 hr followed by cell lysis by IA-alkyne probe based isoTOP-ABPP analysis
T4 sequence (whole entry): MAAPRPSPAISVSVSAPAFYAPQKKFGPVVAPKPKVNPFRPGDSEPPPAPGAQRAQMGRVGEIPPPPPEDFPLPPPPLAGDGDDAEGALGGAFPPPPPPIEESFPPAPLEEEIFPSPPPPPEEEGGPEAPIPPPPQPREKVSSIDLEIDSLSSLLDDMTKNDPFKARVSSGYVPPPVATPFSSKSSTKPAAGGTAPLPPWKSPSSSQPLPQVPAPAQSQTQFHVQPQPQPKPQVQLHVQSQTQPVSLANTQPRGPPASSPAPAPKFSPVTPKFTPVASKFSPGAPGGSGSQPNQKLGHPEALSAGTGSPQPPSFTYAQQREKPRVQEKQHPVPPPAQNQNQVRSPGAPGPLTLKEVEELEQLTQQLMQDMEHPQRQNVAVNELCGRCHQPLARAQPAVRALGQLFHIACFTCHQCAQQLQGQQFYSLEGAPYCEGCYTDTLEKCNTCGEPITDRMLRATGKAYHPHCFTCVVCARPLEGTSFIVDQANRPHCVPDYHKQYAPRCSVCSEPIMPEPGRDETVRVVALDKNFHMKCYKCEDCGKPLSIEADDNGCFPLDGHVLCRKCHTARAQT

[4] = molecular target: T3, Nicotinamide N-methyltransferase; test: Inhibition of SAH-rhodamine binding to NNMT in human 786-O cell soluble proteomic lysate preincubated for 1 hr followed by SAH-rhodamine addition measured after 5 mins by Gel-based ABPP analysis
[5] = molecular target: T5, Glutathione S-transferase omega-1 (Homo sapiens) (UniProt P78417); test: Binding affinity to GSTO1 cysteine residue in human 786-O cell soluble proteomic lysate at 5 uM incubated for 1 hr followed by cell lysis by IA-alkyne probe based isoTOP-ABPP analysis
T5 sequence (whole entry): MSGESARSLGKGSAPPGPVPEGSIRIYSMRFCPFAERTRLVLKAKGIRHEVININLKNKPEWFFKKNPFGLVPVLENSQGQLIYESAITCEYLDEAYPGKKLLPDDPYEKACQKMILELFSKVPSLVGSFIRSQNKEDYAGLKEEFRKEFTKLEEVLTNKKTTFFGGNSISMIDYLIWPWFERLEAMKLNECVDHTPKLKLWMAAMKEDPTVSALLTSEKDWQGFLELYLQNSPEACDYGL

[6] = molecular target: T5, Glutathione S-transferase omega-1 (Homo sapiens); test: Binding affinity to GSTO1 C32 residue in human 786-O cell lysate at 5 uM incubated for 1 hr followed by cell lysis by IA-alkyne probe based isoTOP-ABPP analysis

Structure (SMILES): O=C(Nc1cccnc1Cl)c1cc(N(CCCc2ccccc2)C(=O)CCl)cc(C(F)(F)F)c1
- Activity [1]: Active
- Activity [2]: Active
- IC50 [3]: 17 µM
- Activity (Zyxin (Homo sapiens)): Active
- IC50 [4]: 22 µM

Structure (SMILES): CC(C)CCN(C(=O)CCl)c1cc(C(=O)NCc2cccc([N+](=O)[O-])c2)cc(C(F)(F)F)c1
- Activity [1]: Active
- Activity [2]: Active
- Activity [5]: Active
- IC50 [3]: 0.18 µM
- Activity [6]: Active
- IC50 [4]: 0.35 µM
